According to ChEMBL document CHEMBL4406899, “Design, synthesis, and biological evaluation of 2-amino-N-(2-methoxyphenyl)-6-((4-nitrophenyl)sulfonyl)benzamide derivatives as potent HIV-1 Vif inhibitors” (Bioorg Med Chem Lett, 2019):

Tests used:
[1] = Cytotoxicity against human H9 cells assessed as reduction in cell viability incubated for 7 days by MTT assay; type: cell-based
[2] = system: Human immunodeficiency virus 1; assay: Antiviral activity against HIV1 infected in human H9 cells assessed as decrease in p24 antigen production incubated for 7 days by ELISA; type: functional, organism-based; settings: Human immunodeficiency virus 1, H9, 168 h
[3] = Selectivity index, ratio of CC50 for human H9 cells to EC50 for antiviral activity against HIV-1; type: toxicity; settings: read-out: Ratio CC50/EC50

EC50 [2] [µM] | Structure (SMILES) | CC50 at 168 h [1] [µM] | selectivity ratio [3]
2.12 | COc1ccccc1NC(=O)c1c(N)cccc1Sc1ccc([N+](=O)[O-])cc1 | 462 | 263
176 | COc1ccccc1NC(=O)c1c(N)cccc1Sc1ccncc1 | 569 | 3.23
24.2 | COc1ccccc1NC(=O)c1c(N)cccc1Sc1ccc(C(F)(F)F)cc1 | 352 | 14.6
4.62 | COc1ccccc1NC(=O)c1c(N)cccc1S(=O)(=O)c1ccc(C(F)(F)F)cc1 | 444 | 96.5
252 | COc1ccccc1NC(=O)c1c(N)cccc1Sc1ccc(C(=O)O)cc1 |  | 
44.8 | COc1ccccc1NC(=O)c1c(N)cccc1Sc1ccc(F)cc1 | 543 | 15.6

Further lines, the compound ahead of its results:

Structure (SMILES) | EC50 [2] [µM] | CC50 at 168 h [1] [µM] | selectivity ratio [3]
Nc1cccc(Sc2ccc([N+](=O)[O-])cc2)c1C(=O)Nc1ccccc1O | 9.8 | 153 | 15.6
CS(=O)(=O)Oc1ccccc1NC(=O)c1c(N)cccc1Sc1ccc([N+](=O)[O-])cc1 | 79.9 | 422 | 5.28
COc1ccc(NC(=O)c2c(N)cccc2Sc2ccc([N+](=O)[O-])cc2)c(OC)c1 | 20.3 | 82.5 | 4.06
COc1ncccc1NC(=O)c1c(N)cccc1Sc1ccc([N+](=O)[O-])cc1 | 25.9 | 182 | 7.03
COc1ncccc1NC(=O)c1c(N)cccc1S(=O)(=O)c1ccc([N+](=O)[O-])cc1 | 228 |  | 
Nc1cccc(Sc2ccc([N+](=O)[O-])cc2)c1C(=O)Nc1ccccc1I | 125 | 407 | 3.26
COc1ccccc1NC(=O)c1c(N)cccc1S(=O)(=O)c1ccc(C(=O)O)cc1 | 235 |  | 
COc1ccccc1NC(=O)c1c(N)cccc1Sc1cc(C)cc(C)c1 | 9.6 | 181 | 18.9
COc1ccccc1NC(=O)c1c(N)cccc1S(=O)(=O)c1ccc(F)cc1 | 12.3 | 499 | 53.7
COc1ccccc1NC(=O)c1c(N)cccc1S(=O)(=O)c1cc(C)cc(C)c1 | 244 |  | 
Nc1ccccc1NC(=O)c1c(N)cccc1Sc1ccc([N+](=O)[O-])cc1 | 15.1 | 427 | 28.3
Nc1cccc(S(=O)(=O)c2ccc([N+](=O)[O-])cc2)c1C(=O)Nc1ccccc1I | 30.9 | 382 | 12.4
